# Publication PMC5706701, “Development of a homogenous high-throughput assay for inositol hexakisphosphate kinase 1 activity” (PLoS ONE, 2017)
# Where a name gives a salt, the structure may show the parent alone.
# Molecular target: T1, Human IP6K1 (Homo sapiens, UniProt Q92551)
# T1 construct: GST (N, cleaved yes); made in house; host or cells: C43 E. coli, pGEX-6P-2
# Test: IP6K1 high-throughput screen of the Sigma LOPAC (ADP-Glo Max, single point);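 also: final compound concentration 10µM in 5% DMSO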
# Assay type: biochemical
# [1] = Sigma LOPAC single-point screen, ADP-Glo Max raw signal per well
# [2] = Sigma LOPAC single-point screen, Z-score from plate average and StDev
# [3] = LOPAC single-point screen, ADP-Glo Max raw signal per well
# [4] = LOPAC single-point screen, Z-score from raw signal with plate average and StDev
# [5] = LOPAC single-point screen, Z-score against plate average and StDev
# [6] = LOPAC single-point screen, ADP-Glo Max luminescence raw signal per well
# [7] = LOPAC single-point screen, Z-score from plate average and StDev
# [8] = LOPAC single-point screen, Z-score relative to plate average and StDev
# T1 sequence (Q92551 whole entry): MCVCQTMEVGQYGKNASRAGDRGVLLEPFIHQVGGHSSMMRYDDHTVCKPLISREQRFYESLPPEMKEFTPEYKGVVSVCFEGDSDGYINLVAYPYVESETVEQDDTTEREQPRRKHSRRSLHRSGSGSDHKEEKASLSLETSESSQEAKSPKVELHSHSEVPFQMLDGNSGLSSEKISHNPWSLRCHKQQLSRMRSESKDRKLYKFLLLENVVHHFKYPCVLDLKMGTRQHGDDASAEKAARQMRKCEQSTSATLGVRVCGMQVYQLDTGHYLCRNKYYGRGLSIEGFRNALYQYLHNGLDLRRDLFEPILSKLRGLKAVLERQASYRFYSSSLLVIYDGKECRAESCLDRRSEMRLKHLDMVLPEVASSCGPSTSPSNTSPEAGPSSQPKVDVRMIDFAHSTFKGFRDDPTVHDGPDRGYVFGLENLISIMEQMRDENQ
structure (smiles),measurement,setting,value
COc1ccccc1N1CCN(CC(O)COc2cccc3ccccc23)CC1.Cl.Cl (stereo not drawn) [Naftopidil dihydrochloride],Raw Signal,[1],57488
same,Z-score,[2],0.52
Fc1ccc(C(c2ccc(F)cc2)N2CCN(C/C=C/c3ccccc3)CC2)cc1 [Flunarizine dihydrochloride],Raw Signal,[1],58645
same,Z-score,[2],0.7063
N=C(NCCC[C@H](N)C(=O)O)N[N+](=O)[O-] [NG-Nitro-L-arginine],Raw Signal,[1],57372
same,Z-score,[2],0.5005
[N-]=[N+]=Nc1ccc(C(=O)CSC[C@H](NC(=O)CC[C@H](N)C(=O)O)C(=O)NCC(=O)O)cc1 [S-(p-Azidophenacyl)glutathione],Raw Signal,[3],57217
same,Z-score,[4],-0.1226
Cc1cc(C)c(NC(=O)C[C@H](CC(=O)O)c2cccc3ccccc23)c(C(=O)N2CCC3(CCCC3)CC2)c1 [CR 2945],Raw Signal,[3],55023
same,Z-score,[5],0.1058
CC(N)Cc1c[nH]c2ccc(O)cc12.O=C(O)/C=C\C(=O)O (stereo not drawn) [alpha-Methyl-5-hydroxytryptamine maleate],Z-score,[5],0.02915
Nc1ncnc2c1ncn2C1CCCO1 (stereo not drawn) [SQ 22536],Raw Signal,[6],63004
same,Z-score,[7],1.356
"CC(=O)N[C@@H](Cc1c[nH]c2ccccc12)C(=O)OCc1cc(C(F)(F)F)cc(C(F)(F)F)c1 [L-732,138]",Raw Signal,[6],53722
same,Z-score,[8],-0.7382
"CC1(C)CCC=[N+]1[O-] [5,5-Dimethyl-1-pyrroline-N-oxide]",Raw Signal,[6],51954
same,Z-score,[8],-0.6525
COC1(C2=NCCN2)COc2ccccc2O1.Cl (stereo not drawn) [RX 821002 hydrochloride],Raw Signal,[3],56903
same,Z-score,[5],0.1708
Cl.Cl.c1ccc(CCCN2CCN(CCOC(c3ccccc3)c3ccccc3)CC2)cc1 [GBR-12935 dihydrochloride],Raw Signal,[6],62907
same,Z-score,[7],1.572
Cc1ccccc1CNc1ncnc2c1ncn2[C@@H]1O[C@H](CO)[C@@H](O)[C@H]1O [Metrifudil],Raw Signal,[3],54359
same,Z-score,[5],-0.005798
C=CCc1ccccc1OCC(O)CNC1(C)CCC(C(C)(C)NC(=O)CBr)CC1 (stereo not drawn) [Bromoacetyl alprenolol menthane],Raw Signal,[3],55252
same,Z-score,[4],-0.4687
CCOC(=O)c1cnc2c(cnn2CC)c1NN=C(C)C [Etazolate hydrochloride],Raw Signal,[6],51155
same,Z-score,[8],-0.8148
CCCCCCCC/C=C\CCCCCCCC(=O)NCCO [N-Oleoylethanolamine],Raw Signal,[3],53081
same,Z-score,[4],-0.2205
Cl.NC1(C(=O)O)CCCCC1,Raw Signal,[6],53186
same,Z-score,[8],-0.8326
NC(N)=NOCC[C@H](N)C(=O)O.O=S(=O)(O)O [L-Canavanine sulfate],Raw Signal,[1],61689
same,Z-score,[2],0.665
CC(C)NC[C@H](O)c1ccc(O)c(O)c1.O=C(O)C(O)C(O)C(=O)O [R(-)-Isoproterenol (+)-bitartrate],Raw Signal,[6],62194
same,Z-score,[7],1.427
C=CCN1CC[C@]2(C)c3cc(O)ccc3C[C@H]1[C@H]2C.Cl [(+)-N-Allylnormetazocine hydrochloride],Raw Signal,[6],54138
same,Z-score,[8],-0.6649
CCN(CC)CCNC(=O)c1ccc(NC(C)=O)cc1.Cl [N-Acetylprocainamide hydrochloride],Raw Signal,[6],70393
same,Z-score,[7],2.198
CC(C)c1ccc2c(c1)c(SC(C)(C)C)c(CC(C)(C)C(=O)O)n2Cc1ccc(Cl)cc1 [MK-886],Raw Signal,[3],53257
same,Z-score,[4],-0.191
O=C(O)Cc1ccccc1Nc1c(Cl)cccc1Cl [Diclofenac sodium],Raw Signal,[3],53274
same,Z-score,[4],-0.3845
Cc1c2ccncc2c(C)c2c1[nH]c1ccccc12 [Ellipticine],Raw Signal,[6],50782
same,Z-score,[8],-0.8906
NCCCNCCSP(=O)(O)O [Amifostine],Raw Signal,[6],55102
same,Z-score,[8],-0.4951
Cc1[nH]c(=O)c(C#N)cc1-c1ccncc1 [Milrinone],Raw Signal,[3],53863
same,Z-score,[5],-0.08914
O=C(NCCNCC(O)COc1ccc(O)cc1)N1CCOCC1 (stereo not drawn) [Xamoterol hemifumarate],Raw Signal,[1],60033
same,Z-score,[2],0.7789
